Assay results reported in publication PMC9146215, “Design of D-Amino Acids SARS-CoV-2 Main Protease Inhibitors Using the Cationic Peptide from Rattlesnake Venom as a Scaffold” (Pharmaceuticals, 2022).
Positions of bridges follow the written chain, without caps; N, C: chain ends. Non-standard residues stand in square brackets, D forms with d. Residues, ends and D or L forms follow the SMILES beside them. No end group written: not given here.

How the values were obtained:
SARS-CoV-2 3CL^pro [1] = target: T1, SARS-CoV-2 3CL^pro (Severe acute respiratory syndrome coronavirus 2, UniProt P0DTD1); assay: SARS-CoV-2 3CLpro fluorogenic (DABCYL/EDANS substrate) inhibition assay; type: biochemical; details: 0.5 µM 3CLpro, n = 3; for IC50: 30 min pre-incubation with inhibitor at RT, 50 µM substrate, 37 °C, pH 7.2, 1 mM TCEP, mean ± SD, read-out: IC50 [µM] ± STD
T1 construct: SARS-CoV-2 3CL^pro (Uniprot entry: P0DTD1, virus strain: hCoV-19/Wuhan/WIV04/2019) was cloned, expressed, and purified; GST (cleaved yes); made in house; host or cells: E. coli Lemo21 (DE3)
Description: The SARS-CoV-2 3CL^pro activity assay was performed using DABCYL-KTSAVLQ/SGFRKME-EDANS (Bachem, Switzerland) as substrate.
SARS-CoV-2 3CL^pro activity assay was performed using a fluorogenic substrate DABCYL-KTSAVLQ↓SGFRKME-EDANS (Bachem, Bubendorf, Switzerland) in a buffer containing 20 mM Tris pH 7.2, 200 mM NaCl, 1 mM EDTA, and 1 mM TCEP [31, 32, 33, 34]. The reaction mixture was pipetted in a Corning 96-well plate (Merck, Darmstadt, Germany) containing 0.5 µM protein. The assay was initiated with the addition of the substrate at a final concentration of 50 µM. The fluorescence intensities were measured at 60 s intervals over 30 min using an Infinite 200 PRO plate reader (Tecan, Männedorf, Switzerland), and the temperature was set to 37 °C. The excitation and emission wavelengths were 360 and 460 nm, respectively.
The activity assay described above investigated the inhibition of SARS-CoV-2 3CL^pro activity by Cro, L- and D-CDPs. 30 µM of the peptides was used for a preliminary screening test.
For the final inhibition assays, 0.5 µM of the protein was mixed with 0–300 µM Cro, 0–150 µM L-CDPs, and 0–125 µM D-CDPs and subsequently incubated for 30 min at RT. An additional experiment was conducted where the substrate and the inhibitor were added simultaneously (without incubation). When the substrate with a final concentration of 50 µM was added to the mixture, the fluorescence intensities were measured at 60 s intervals over 30 min using an Infinite 200 PRO plate reader (Tecan, Männedorf, Switzerland). The temperature was set to 37 °C, and the excitation and emission wavelengths were 360 and 460 nm, respectively. Inhibition assays were performed in triplicate.
The IC50 value was calculated by plotting the initial velocity against various concentrations of the combined molecules using a dose-response curve in GraphPad Prism5 software […]. Data are presented as mean ± SD.

[2] = tested on: all cell types investigated; details: rapid translocation efficiency; cited from earlier work
Description: These properties were mainly determined by the overall positive net surface charge distribution of crotamine. Characterised as a novel cell-penetrating polypeptide (CPP) nanocarrier, Cro has biotechnological ...

SARS-CoV-2 3CL^pro [3] = target: T1, SARS-CoV-2 3CL^pro; assay: Determination of inhibition mode (Lineweaver-Burk plot); type: biochemical; details: 0.5 µM 3CLpro, 30 min incubation at RT, triplicate
Description: The inhibition mode was determined using different final concentrations of the inhibitors and substrate. […] The remaining L-peptides were not tested.
Briefly, 0.5 µM SARS-CoV-2 3CL^pro was incubated with the inhibitor, in various concentrations, for 30 min at RT. Subsequently, the reaction was initiated by adding the corresponding concentration series of the substrate. The data were analysed using a Lineweaver-Burk plot; therefore, the reciprocal of velocity (1/V) vs the reciprocal of the substrate concentration (1/[S]) was compared. All measurements were performed in triplicate, and data are presented as mean ± SD.

pepsin = pepsin (Sus scrofa, UniProt P00791); assay: L- and D-peptide stability against pepsin hydrolysis (simulated gastric fluid); type: in vitro ADME; details: simulated gastric fluid: 3.2 mg/mL pepsin, pH 1.0, 37 °C, 4 and 8 h; RP-HPLC
Description: (§1) As protein hydrolysis is initiated by pepsin, we have performed a hydrolysis experiment simulating gastric fluid for both selected L- and D-peptides. After incubation over 4 and 8 h, the sample was analysed using RP-HPLC (Supplementary Figure S8).
(§2) The preparation of the pepsin solution was performed as described before. The experiment solution contains 2 mg/mL NaCl, 3.2 mg/mL pepsin, and 80 mM HCL at a pH 1.0. This solution simulated gastric fluid. […] Samples were taken after 0 h, 4 h, and 8 h. The samples were analysed by reversed-phase high-performance liquid chromatography (RP-HPLC). The RP-HPLC system (Agilent Technologies, Santa Clara, CA, USA; 1200 series) consisted of a manual injector, quaternary pump, a thermostatted column compartment, and a variable wavelength detector. Chromatography was performed with a C18 column (Agilent Technologies, Santa Clara, CA, USA; ZORBAX 300SB-C18 5 µm, 4.6 × 250 mm) at 25 °C and 214 nm with a flow rate of 1 mL/min. The sample injection volume was 20 µL. Chromatograms were recorded and analysed with the Agilent software ChemStation (G2175BA; B03.01). Mobile phases were acetonitrile (A) and water (B), each supplemented with 0.15% trifluoroacetic acid (TFA) (v/v). The samples were measured isocratically at 10% solvent A for 30 min.

SARS-CoV-2 3CL^pro [4] = target: T1, SARS-CoV-2 3CL^pro; assay: Inhibitor stability over 24 h (24 h inhibition experiment); type: biochemical; details: 0.5 µM 3CLpro with 5 µM peptide, 1/2 h to 24 h at RT, triplicate
Description: Briefly, 0.5 µM SARS-CoV-2 3CL^pro was incubated with 5 µM of the peptide and incubated for 1/2 h, 1 h, 2 h, 3 h, 4 h, 5 h, and 24 h at RT. The control was performed with the 3CL^pro in the absence of the peptide and measured together after each time point. Subsequently, the reaction was initiated by the addition of the substrate. All measurements were performed in triplicate, and data are presented as mean ± SD.

SARS-CoV-2 3CL^pro [5] = target: T1, SARS-CoV-2 3CL^pro; assay: Detergent-based (Triton X-100) control assay for aggregation-based promiscuous inhibition; type: biochemical; details: 0.001%, 0.01%, 0.1% Triton X-100; four peptide concentrations; triplicate
Description: A detergent-based control assay was performed to exclude inhibitors that possibly act as aggregators of the 3CL^pro by adding 0.001%, 0.01%, and 0.1% of Triton X-100 to the reaction. […] All measurements were performed in triplicate, and data are presented as mean ± SD.

Vero CCL-81 cells = assay: MTT cell viability assay; type: cell-based, African green monkey; details: n = 3
Description: Therefore, Vero cells were cultivated in DMEM medium supplemented with 2% fetal calf serum (FCS) and 1% penicillin/streptomycin. A total of 2000 cells per well in a volume of 100 µL were seeded on flat-bottomed 96-well plates (VWR, Radnor, USA) and incubated in a 95% humidified atmosphere with 5% CO2 at 37 °C for 24 h. Subsequently, the cells were treated with 0.2, 1, 5, 10, 25, 50, and 98 µM of each molecule at 37 °C with 5% CO2 for 24 h.
According to the manufacturer’s instructions, cell viability was measured using the Cell Proliferation Kit I (Roche, Basel, Switzerland) in a 3-fold determination. The absorbance of the formazan product was determined by measuring the absorption at 570 nm and subtracted by the absorbance at 690 nm in a microplate reader (BMG Labtech, Ortenberg, Germany). The results were normalised to the mean value of cells treated with medium only. As a […] control for cytotoxicity, 0.1% Triton X-100 diluted in the medium was used. Cell viability was calculated according to Equation (2):(T/C) × 100%(2) where T and C represented the optical density of the treated well and control groups, respectively.

[6] = tested on: SARS-CoV-2 B1.1 isolate (NRW-42) in Vero cells; type: cell-based
[7] = L- and D-peptide stability against pepsin hydrolysis (simulated gastric fluid); type: in vitro ADME; details: simulated gastric fluid with pepsin (3.2 mg/mL); simulated gastric fluid: 2 mg/mL NaCl, 3.2 mg/mL pepsin, 80 mM HCl, pH 1.0; 37 °C, 500 rpm; after 8 h; RP-HPLC C18, 214 nm; read-out: Peptide amount remaining after pepsin incubation
Description: as §1, §2

Chain of pepsin (P00791 60-385): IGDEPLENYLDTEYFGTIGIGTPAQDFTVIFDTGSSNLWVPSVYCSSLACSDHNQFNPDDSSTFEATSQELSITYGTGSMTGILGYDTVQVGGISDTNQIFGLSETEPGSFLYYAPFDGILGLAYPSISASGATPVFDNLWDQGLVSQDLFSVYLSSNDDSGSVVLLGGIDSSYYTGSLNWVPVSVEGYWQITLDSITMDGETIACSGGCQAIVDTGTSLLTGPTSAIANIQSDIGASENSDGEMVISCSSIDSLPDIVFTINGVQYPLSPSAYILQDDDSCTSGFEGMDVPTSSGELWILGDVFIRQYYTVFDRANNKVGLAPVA

## YKQCHKKGGHCFPKEKICLPPSSDFGKMDCRWRWKCCKKGSG (disulfide 4-36, 11-30, 18-37) [Crotamine]
SARS-CoV-2 3CL^pro [1]
  IC50: 40 ± 3.1 µM
[2]
  Time for translocation into cells: ≤ 5 min

## COC(=O)[C@H](CCCCN)NC(=O)[C@H](CCCCN)NC(=O)[C@H](CO)NC(=O)[C@H](CO)NC(=O)[C@H](CCCCN)NC(=O)[C@H](Cc1c[nH]c2ccccc12)NC(=O)[C@H](CCCNC(=N)N)NC(=O)[C@H](Cc1c[nH]c2ccccc12)NC(=O)[C@H](CCCNC(=N)N)NC(=O)[C@H](CS)NC(=O)[C@H](CC(=O)O)NC(=O)[C@H](CCSC)NC(=O)[C@H](CCCCN)NC(C)=O [L-CDP3] (Ac-KMDCRWRWKSSKK-OMe)
SARS-CoV-2 3CL^pro [1]
  IC50: 8.5 ± 1 µM

## COC(=O)[C@@H](CCCCN)NC(=O)[C@@H](CCCCN)NC(=O)[C@@H](CS)NC(=O)[C@@H](CS)NC(=O)[C@@H](CCCCN)NC(=O)[C@@H](Cc1c[nH]c2ccccc12)NC(=O)[C@@H](CCCNC(=N)N)NC(=O)[C@@H](Cc1c[nH]c2ccccc12)NC(=O)[C@@H](CCCNC(=N)N)NC(=O)[C@@H](CS)NC(=O)[C@@H](CC(=O)O)NC(=O)[C@@H](CCSC)NC(=O)[C@@H](CCCCN)NC(C)=O [D-CDP1] (Ac-[dK][dM][dD][dC][dR][dW][dR][dW][dK][dC][dC][dK][dK]-OMe)
SARS-CoV-2 3CL^pro [3]
  Inhibition Type: Competitive
pepsin
  Stability against pepsin hydrolysis (in words): stable against pepsin hydrolysis
SARS-CoV-2 3CL^pro [4]
  Inhibition of SARS-CoV-2 3CLpro over 24 h (stability of inhibitor): constant inhibition
SARS-CoV-2 3CL^pro [5]
  Aggregation-based inhibition (inhibition diminished by detergent): not observed
Vero CCL-81 cells
  Cytotoxic effect at the calculated IC50 concentrations: no cytotoxic effect
[6]
  Viral RNA in cell culture supernatant: significant decrease in viral RNA

## COC(=O)[C@H](CCCCN)NC(=O)[C@H](CCCCN)NC(=O)[C@H](CS)NC(=O)[C@H](CS)NC(=O)[C@H](CCCCN)NC(=O)[C@H](Cc1c[nH]c2ccccc12)NC(=O)[C@H](CCCNC(=N)N)NC(=O)[C@H](Cc1c[nH]c2ccccc12)NC(=O)[C@H](CCCNC(=N)N)NC(=O)[C@H](CS)NC(=O)[C@H](CC(=O)O)NC(=O)[C@H](CCSC)NC(=O)[C@H](CCCCN)NC(C)=O [L-CDP1] (Ac-KMDCRWRWKCCKK-OMe)
SARS-CoV-2 3CL^pro [1]; dose-dependent study
  Concentration giving 100% protease inhibition: 30 µM
SARS-CoV-2 3CL^pro [3]
  Inhibition Type: Competitive
[7]
  remaining at 8 h: ~50%
SARS-CoV-2 3CL^pro [4]
  Inhibition of SARS-CoV-2 3CLpro over 24 h (stability of inhibitor): constant inhibition
SARS-CoV-2 3CL^pro [5]
  Aggregation-based inhibition (inhibition diminished by detergent): not observed
